Experimental data reported in US20240116921A1, “LACTAM (HETERO)[…] DERIVATIVES AS INHIBITORS OF ERBB2” (EnLiven Therapeutics, Inc., priority 2020, published 2024).

What was measured:
[1] = target: T1, phosphorylated ERBB2 (pERBB2) (Homo sapiens, UniProt P04626); experiment: Detection of phosphorylated ERBB2 (pERBB2) by ELISA in BT-474 cells; format: cell-based; conditions: four hours incubation
T1 construct: endogenous in cells; host or cells: BT-474
Protocol: BT-474 cells were seeded into a 96-well at 2.0*10^4 cells/100 μl/well.
Compounds were dissolved and serially diluted in DMSO. The compounds were then were added, mixed, and incubated for four hours at 37° C., 5% CO2. Compounds were added using four-fold dilutions at final concentrations ranging from 10 μM to 0.01 nM.
Following the four hour incubation with compounds, cell lysates were prepared.
Plates were centrifuged for 5 min at 3000 RPM, and supernatant was removed from each well. Cells were washed 3 times by resuspension in 150 μl PBS, followed by centrifugation and removal of the supernatant, as above. […] Cells were incubated with lysis buffer for 1 hour at 4° C., and then stored at −80° C.
Enzyme-linked immunosorbent assays (ELISA) were performed to measure phosphorylated ERBB2 levels. […] The next day, plates were washed with PBS+0.05% Tween20 (PBST). 150 μl of 5% BSA blocking solution was added for 1 hour at room temperature, with shaking. Plates were washed with PBST. Cell lysates were thawed and 100 μl of lysate was added to the ELISA plate. The plates were incubated for 2 hours at room temperature, with shaking. […] Plates were incubated for 1 hour at room temperature, with shaking. Plates were then washed with PBST, and 100 μl TMB substrate solution (R&D Systems, cat #DY999) was added. Plate were incubated in the dark for 20 minutes at room temperature. 50 μl of Stop solution (R&D Systems, cat #DY994) (50 μl) was added to each well and mixed.
Optical density at 450 nm was read on an EnSpire plate reader (Perkin Elmer). The remaining kinase activity by calculated using the following formula: % Relative activity=100×(A450sample−A450LC)/(A450HC−A450LC). The low and high control values (“LC” and “HC”) were generated from lysate from wells without cells or with cells treated with 0.1% DMSO, respectively.

[2] = target: T2, phosphorylated EGFR (pEGFR) (Homo sapiens, UniProt P00533); experiment: Detection of phosphorylated EGFR (pEGFR) in EGF-stimulated A431 cells; format: cell-based; conditions: A431 cells (10% FBS), 4 hours incubation, EGF 30 ng/mL 10 minutes, AlphaLISA
T2 construct: performed to measure phosphorylated EGFR levels using A431 cells (10% FBS); endogenous in cells; host or cells: A431
T2 sequence (P00533 25-1210): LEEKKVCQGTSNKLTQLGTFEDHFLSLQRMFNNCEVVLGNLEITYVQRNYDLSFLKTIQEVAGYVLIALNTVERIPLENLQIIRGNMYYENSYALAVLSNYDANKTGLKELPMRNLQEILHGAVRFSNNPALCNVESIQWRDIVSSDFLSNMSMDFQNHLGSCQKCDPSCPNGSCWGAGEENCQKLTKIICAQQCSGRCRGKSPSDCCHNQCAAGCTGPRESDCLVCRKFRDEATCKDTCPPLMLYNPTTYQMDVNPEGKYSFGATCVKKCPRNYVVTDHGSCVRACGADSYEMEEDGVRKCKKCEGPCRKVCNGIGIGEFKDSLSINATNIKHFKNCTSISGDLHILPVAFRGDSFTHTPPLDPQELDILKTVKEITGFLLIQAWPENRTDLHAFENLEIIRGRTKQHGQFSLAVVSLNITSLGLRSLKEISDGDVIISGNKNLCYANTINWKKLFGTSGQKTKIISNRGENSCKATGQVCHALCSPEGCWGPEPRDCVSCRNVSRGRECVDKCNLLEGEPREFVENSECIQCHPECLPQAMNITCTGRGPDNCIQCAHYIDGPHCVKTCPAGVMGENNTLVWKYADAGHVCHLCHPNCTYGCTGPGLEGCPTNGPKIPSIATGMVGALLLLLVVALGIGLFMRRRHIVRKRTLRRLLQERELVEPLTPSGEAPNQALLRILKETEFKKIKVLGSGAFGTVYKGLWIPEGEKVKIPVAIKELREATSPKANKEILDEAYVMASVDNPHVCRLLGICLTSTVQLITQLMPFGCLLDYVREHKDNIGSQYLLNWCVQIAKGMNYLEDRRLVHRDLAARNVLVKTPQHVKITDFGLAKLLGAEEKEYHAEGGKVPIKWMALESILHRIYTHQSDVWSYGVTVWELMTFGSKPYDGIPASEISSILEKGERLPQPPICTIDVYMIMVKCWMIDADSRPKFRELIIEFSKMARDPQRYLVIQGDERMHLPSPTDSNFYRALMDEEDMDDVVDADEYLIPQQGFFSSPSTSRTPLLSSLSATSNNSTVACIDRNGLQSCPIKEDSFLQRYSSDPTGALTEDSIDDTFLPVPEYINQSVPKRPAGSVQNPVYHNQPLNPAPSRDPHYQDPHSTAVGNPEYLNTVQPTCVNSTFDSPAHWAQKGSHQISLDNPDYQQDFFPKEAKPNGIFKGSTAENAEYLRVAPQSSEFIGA
Protocol: Enzyme-linked immunosorbent assays (ELISA) were performed to measure phosphorylated EGFR levels using A431 cells (10% FBS). A431 (1.0*10^4 cells/40 μl/well) cells were seeded in 384 well. Compounds were dissolved in DMSO, serially diluted in DMSO and then were added, mixed, and incubated for 4 hours at 37° C., 5% CO2. Following the 4-hours incubation, cells were stimulated for 10 minutes with EGF (Invitrogen, cat #PHG0311) at a final concentration of 30 ng/mL in the incubator. The media was aspirated and cells were lysed in 10 μL lysis buffer with protease and phosphatase inhibitors (PerkinElmer, cat #ALSU-PEGFR-A50K). The plates were placed on a shaker for 5 minutes and then incubated for 30 min at 4° C. for complete lysis. The lysate was transferred to an Optiplate (Perkin Elmer, cat #6007290).
Acceptor mix (PerkinElmer, cat #ALSU-PEGFR-A50K) was prepared just before use and 5 μL was dispensed to all the wells, followed by a 1.5-2 h incubation at room temperature in dark. The donor mix (PerkinElmer, cat #ALSU-PEGFR-A50K) was prepared under low light conditions prior to use and […] of donor mix was added to all the wells under subdued lighting or green filters. The plates were placed on a shaker for 5 min, sealed, and incubated overnight at room temperature in dark. Plates were read on the Envision (PerkinElmer) using standard AlphaLISA settings.
The percentage of inhibition on EGFR phosphorylation was calculated following equation: % Inhibition=100×(LumHC−LumSample)/(LumHC−LumLC). The low and high controls (LC/HC) are generated from lysate from wells with cells treated with DMSO or […] Staurosporine (BioAustralis, cat #BIA-S1086), […]. IC50 values were calculated by fitting the Curve using XLfit (v5.3.1.3), equation 201: Y=Bottom+(Top−Bottom)/(1+10^((Log IC50−X)*HillSlope)).

[3] = target: Ba/F3 ERBB2 A775_G776insYVMA (Homo sapiens, UniProt P04626, DUP772-775, cells depend on it); experiment: Cell viability assay, Ba/F3 ERBB2 A775_G776insYVMA; format: cell-based, mouse; conditions: Ba/F3 ERBB2 YVMA cells, cell viability, 72 hours, CellTiter Glo; Table B5; read-out: Ba/F3 ERBB2 YVMA, IC50
Chain of Ba/F3 ERBB2 A775_G776insYVMA (P04626 with tags, fused parts or gaps DUP772-775): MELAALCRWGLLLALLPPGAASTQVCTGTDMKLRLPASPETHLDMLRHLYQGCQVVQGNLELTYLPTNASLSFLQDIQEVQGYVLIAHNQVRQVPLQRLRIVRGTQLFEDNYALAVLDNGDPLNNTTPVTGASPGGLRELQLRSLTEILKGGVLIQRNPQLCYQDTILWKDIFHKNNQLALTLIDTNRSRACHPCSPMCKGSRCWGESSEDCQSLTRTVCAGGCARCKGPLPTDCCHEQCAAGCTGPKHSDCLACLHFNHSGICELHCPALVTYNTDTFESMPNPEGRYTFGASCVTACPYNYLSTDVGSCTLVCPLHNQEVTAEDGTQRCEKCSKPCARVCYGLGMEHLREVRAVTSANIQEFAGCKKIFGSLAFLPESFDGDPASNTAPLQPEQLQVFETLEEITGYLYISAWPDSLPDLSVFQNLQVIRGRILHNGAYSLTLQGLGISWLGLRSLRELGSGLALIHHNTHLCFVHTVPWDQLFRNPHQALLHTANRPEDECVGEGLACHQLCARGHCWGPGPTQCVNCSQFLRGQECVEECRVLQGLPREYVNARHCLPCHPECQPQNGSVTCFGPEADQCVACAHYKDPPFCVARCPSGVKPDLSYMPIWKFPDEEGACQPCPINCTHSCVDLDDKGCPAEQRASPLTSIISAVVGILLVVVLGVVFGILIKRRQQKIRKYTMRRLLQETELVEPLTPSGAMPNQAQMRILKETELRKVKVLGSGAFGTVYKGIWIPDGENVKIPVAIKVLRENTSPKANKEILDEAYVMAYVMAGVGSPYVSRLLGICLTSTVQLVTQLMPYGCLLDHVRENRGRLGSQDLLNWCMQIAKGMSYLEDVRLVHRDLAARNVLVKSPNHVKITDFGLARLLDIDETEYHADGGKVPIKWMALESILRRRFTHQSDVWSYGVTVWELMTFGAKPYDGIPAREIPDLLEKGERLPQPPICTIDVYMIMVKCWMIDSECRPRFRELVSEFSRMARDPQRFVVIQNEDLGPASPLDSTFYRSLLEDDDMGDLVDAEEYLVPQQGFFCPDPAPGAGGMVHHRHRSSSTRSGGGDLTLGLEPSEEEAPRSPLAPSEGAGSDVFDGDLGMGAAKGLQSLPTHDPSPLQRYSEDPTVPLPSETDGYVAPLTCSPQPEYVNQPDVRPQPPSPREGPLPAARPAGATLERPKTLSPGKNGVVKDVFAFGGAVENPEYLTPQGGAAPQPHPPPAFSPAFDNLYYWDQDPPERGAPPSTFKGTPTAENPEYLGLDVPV
Protocol: Cells were treated with compounds, and cell viability was measured as a metric of kinase inhibition.
The Ba/F3 cell line is IL-3-dependent mouse cell line derived from the C3H mouse strain. Ba/F3 cell lines were engineered to express human ERBB2 or EGFR kinases, rendering the cells IL-3 independent. The lines were generated via retroviral transduction utilizing a Moloney murine leukemia virus (MMLV) promoter, and constructs are stably integrated into the cell genome. The sequences of the ERBB2 and EGFR genes used were NCBI Reference Sequences NM_004448.3 and NM_005228.3, respectively.
Similarly, Ba/F3 cell lines engineered to express EGFR, ERBB2, or ERBB2 mutants were grown, harvested, counted and seeded at 3000 cells per well in 96-well plates. A subset of wells contained media only (low control, “LC”).
Table B1 provides the growth media and number of cells seeded per well for the each cell line.
Plates were placed in a 37° C., 5% CO2 incubator for 72 hours. Plates were then removed from the incubator and equilibrated for 15 minutes at room temperature. 40 μl of CellTiter Glo reagent (Promega) was added to measure the relative level of metabolically active cells by quantifying intracellular ATP concentrations. Plates were incubated for 30 minutes at room temperature, and luminescence was measured. […] Graphical curves were fitted using a nonlinear regression model with a sigmoidal dose response.

T1 sequence (P04626 23-1255): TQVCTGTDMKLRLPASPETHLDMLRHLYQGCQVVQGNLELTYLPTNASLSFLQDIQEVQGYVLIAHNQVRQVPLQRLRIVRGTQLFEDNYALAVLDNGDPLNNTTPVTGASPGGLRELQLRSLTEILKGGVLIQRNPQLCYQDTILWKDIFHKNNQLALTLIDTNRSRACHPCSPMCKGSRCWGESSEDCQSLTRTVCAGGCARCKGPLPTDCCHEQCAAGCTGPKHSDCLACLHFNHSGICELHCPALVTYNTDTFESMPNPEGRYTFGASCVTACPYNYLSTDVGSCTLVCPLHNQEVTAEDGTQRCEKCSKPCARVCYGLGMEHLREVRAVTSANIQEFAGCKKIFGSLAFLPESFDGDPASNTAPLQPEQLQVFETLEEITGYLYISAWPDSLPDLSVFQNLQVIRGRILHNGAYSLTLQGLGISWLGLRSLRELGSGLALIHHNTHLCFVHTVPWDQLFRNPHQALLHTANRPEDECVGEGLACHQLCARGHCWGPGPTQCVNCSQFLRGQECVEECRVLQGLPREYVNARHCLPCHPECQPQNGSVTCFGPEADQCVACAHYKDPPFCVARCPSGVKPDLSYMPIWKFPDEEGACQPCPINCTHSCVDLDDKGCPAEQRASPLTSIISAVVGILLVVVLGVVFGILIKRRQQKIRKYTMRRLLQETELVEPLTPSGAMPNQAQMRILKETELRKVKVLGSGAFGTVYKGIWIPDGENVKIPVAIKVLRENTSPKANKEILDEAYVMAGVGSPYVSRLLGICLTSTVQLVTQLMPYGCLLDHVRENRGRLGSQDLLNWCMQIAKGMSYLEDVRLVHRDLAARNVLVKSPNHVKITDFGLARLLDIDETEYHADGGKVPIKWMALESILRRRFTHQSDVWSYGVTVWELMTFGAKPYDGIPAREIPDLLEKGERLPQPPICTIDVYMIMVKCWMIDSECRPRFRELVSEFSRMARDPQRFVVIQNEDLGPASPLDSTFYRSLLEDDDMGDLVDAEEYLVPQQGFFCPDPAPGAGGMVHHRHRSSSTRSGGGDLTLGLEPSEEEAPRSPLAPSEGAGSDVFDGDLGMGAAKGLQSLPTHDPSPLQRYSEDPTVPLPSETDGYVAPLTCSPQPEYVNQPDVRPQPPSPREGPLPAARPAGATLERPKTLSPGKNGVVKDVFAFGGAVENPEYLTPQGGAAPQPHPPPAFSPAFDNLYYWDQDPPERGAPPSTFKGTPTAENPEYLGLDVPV

IC50 [1] | IC50 [2] | Compound | GI50 [3]
28.2 nM | 1690 nM | [2H]C([2H])([2H])N(C/C=C1\CCN(c2ccc3ncnc(Nc4ccc(Oc5ccc6c(c5)ncn6C([2H])([2H])[2H])c(C)c4)c3n2)C1=O)C([2H])([2H])[2H] [Compound 106, (E)-3-(2-(bis(methyl-d3)amino)ethylidene)-1-(4-((3-methyl-4-((1-(methyl-d3)-1H-benzo[d]imidazol-5-yl)oxy)phenyl)amino)pyrido[3,2-d]pyrimidin-6-yl)pyrrolidin-2-one] | 2.99 nM
18.5 nM | 1140 nM | Cc1cc(Nc2ncnc3ccc(N4CC/C(=C\CN(C)C)C4=O)cc23)ccc1Oc1ccc2c(c1)ncn2C [Compound 33, (E)-3-(2-(dimethylamino)ethylidene)-1-(4-((3-methyl-4-((1-methyl-1H-benzo[d]imidazol-5-yl)oxy)phenyl)amino)quinazolin-6-yl)pyrrolidin-2-one] | 15.8 nM
26.9 nM | 1020 nM | C=C1C(=O)N(c2ccc3ncnc(Nc4ccc(Oc5ccc6c(c5)ncn6C)c(C)c4)c3c2)C[C@H]1C [Compound 37, (S)-4-methyl-1-(4-((3-methyl-4-((1-methyl-1H-benzo [d]imidazol-5-yl)oxy)phenyl)amino)quinazolin-6-yl)-3-methylenepyrrolidin-2-one] | 17.4 nM
14.3 nM | > 10000 nM | Cc1cc(Nc2ncnc3ccc(N4CC/C(=C\C5CN(C)C5)C4=O)nc23)ccc1Oc1ccn2ncnc2c1 [Compound 139, (3E)-1-{4-[(3-methyl-4-{[1,2,4]triazolo[1,5-a]pyridin-7-yloxy}phenyl)amino]pyrido[3,2-d]pyrimidin-6-yl}-3-[(1-methylazetidin-3-yl)methylidene]pyrrolidin-2-one] | 15.7 nM
25.7 nM | 273 nM | Cc1cc(Nc2ncnc3ccc(N4CC/C(=C\CN(C)C)C4=O)nc23)ccc1Oc1ccn2ccnc2c1 [Compound 71, (3E)-3-[2-(dimethylamino)ethylidene]-1-{4-[(4-{imidazo[1,2-a]pyridin-7-yloxy}-3-methylphenyl)amino]pyrido[3,2-d]pyrimidin-6-yl}pyrrolidin-2-one] | 2.56 nM
12.7 nM | 175 nM | Cc1cc(Nc2ncnc3ccc(N4C(=O)C(=CCN(C)C)C5CC54)nc23)ccc1Oc1ccn2ncnc2c1 (single isomer, unassigned) [Example S108, Enantiomer #2, 4-[2-(dimethylamino)ethylidene]-2-{4-[(3-methyl-4-{[1,2,4]triazolo[1,5-a]pyridin-7-yloxy}phenyl)amino]pyrido[3,2-d]pyrimidin-6-yl}-2-azabicyclo[3.1.0]hexan-3-one] | 4.88 nM
26.4 nM | > 10000 nM | Cc1cc(Nc2ncnc3ccc(N4CC(C)C(=CCN(C)C)C4=O)nc23)ccc1Oc1ccn2ncnc2c1 (single isomer, unassigned) [Example S98, Enantiomer #2, 3-[2-(dimethylamino)ethylidene]-4-methyl-1-{4-[(3-methyl-4-{[1,2,4]triazolo[1,5-a]pyridin-7-yloxy}phenyl)amino]pyrido[3,2-d]pyrimidin-6-yl}pyrrolidin-2-one] | 71.2 nM
138 nM | > 10000 nM | Cc1cc(Nc2ncnc3cnc(N4CC(C)/C(=C\CN(C)C)C4=O)cc23)ccc1Oc1ccc2c(c1)nnn2C (single isomer, unassigned) [Example S86, Enantiomer #2, (3E)-3-[2-(dimethylamino)ethylidene]-4-methyl-1-[4-({3-methyl-4-[(1-methyl-1,2,3-benzotriazol-5-yl)oxy]phenyl}amino)pyrido[3,4-d]pyrimidin-6-yl]pyrrolidin-2-one] | 240 nM
18.2 nM | 33.7 nM | C=C1C(=O)N(c2ccc3ncnc(Nc4ccc(Oc5ccn6ncnc6c5)c(C)c4)c3c2)CC1COCCN(C)C (single isomer, unassigned) [Example S111, Enantiomer #2, 1-(4-(4-([1,2,4]triazolo[1,5-a]pyridin-7-yloxy)-3-methylphenylamino)quinazolin-6-yl)-4-((2-(dimethylamino)ethoxy)methyl)-3-methylenepyrrolidin-2-one] | 10.8 nM
24.9 nM | 520 nM | C=C1C(=O)N(c2ccc3ncnc(Nc4ccc(Oc5ccc6c(c5)ncn6C)c(C)c4)c3c2)C2CC12 (single isomer, unassigned) [Example S33, Enantiomer # 2, 2-[4-({3-methyl-4-[(1-methyl-1,3-benzodiazol-5-yl)oxy]phenyl}amino)quinazolin-6-yl]-4-methylidene-2-azabicyclo[3.1.0]hexan-3-one] | 7.6 nM
81.2 nM | > 10000 nM | C=C1CCN(c2ccc3ncnc(Nc4ccc(Cc5ccc6c(c5)ncn6C)c(C)c4)c3c2)C1=O [Compound 52, 1-[4-({3-methyl-4-[(1-methyl-1,3-benzodiazol-5-yl)methyl]phenyl}amino)quinazolin-6-yl]-3-methylidenepyrrolidin-2-one] | 21.9 nM
327 nM | > 10000 nM | Cc1cc(Nc2ncnc3ccc(N4CC/C(=C\[C@H](C)N(C)C)C4=O)nc23)ccc1Oc1ccn2ncnc2c1 [Compound 113, (S,E)-1-(4-((4-([1,2,4]triazolo[1,5-a]pyridin-7-yloxy)-3-methylphenyl)amino)pyrido[3,2-d]pyrimidin-6-yl)-3-(2-(dimethylamino)propylidene)pyrrolidin-2-one] | > 500 nM
9.9 nM | 103 nM | C=C1C(=O)N(c2cc3c(Nc4ccc(Oc5ccn6ncnc6c5)c(C)c4)ncnc3cn2)C2CC12 (single isomer, unassigned; enantiomer 1) [Example S40, Enantiomer # 1, 2-{4-[(3-methyl-4-{[1,2,4]triazolo[1,5-a]pyridin-7-yloxy}phenyl)amino]pyrido[3,4-d]pyrimidin-6-yl}-4-methylidene-2-azabicyclo[3.1.0]hexan-3-one Enantiomer 1] | 3.47 nM
66.1 nM | 704 nM | Cc1cc(Nc2ncnc3cnc(N4CC/C(=C\CN(C)C)C4=O)cc23)ccc1Oc1cccnc1 [Compound 80, (3E)-3-[2-(dimethylamino)ethylidene]-1-(4-{[3-methyl-4-(pyridin-3-yloxy)phenyl]amino}pyrido[3,4-d]pyrimidin-6-yl)pyrrolidin-2-one] | 35.5 nM
